The source of these data is publication PMC7714403 (JCI Insight, 2020).

pIC50, pKd: −log10 of the molar value.

For data set [1], the target named is PIK3CD (Homo sapiens, UniProt O00329). Briefly: KiNativ, OCI cells live cell. The data set is classed as cell-based. As to conditions: 2 h, labeling site ATP, peptide […].
Data set [2] addresses ACK1 (Homo sapiens, UniProt Q07912). The data set is described as follows: Kinase assay by Reaction Biology. It is filed as biochemical. Also on record: purchased Eurofins DiscoverX.
Data set [3] addresses MELK (Homo sapiens, UniProt Q14680). Briefly: KiNativ, OCI cells live cell. The data set is classed as cell-based. As to conditions: 2 h, labeling site Lys2, peptide […].
In data set [4] the target is SYK (Homo sapiens, UniProt P43405). The data set is described as follows: KiNativ, OCI cells live cell. It is filed as cell-based.
Data set [5] relates to MST3, MST4, YSK1. The data set is described as follows: KiNativ, OCI cells live cell. The conditions noted are these: labeling site Activation Loop, peptide LADFGVAGQLTDTQIKR
It is filed as cell-based, human.

Data set [6] concerns the target NLK (Homo sapiens, UniProt Q9UBE8). The data set is described as follows: KiNativ, OCI cells live cell. The conditions noted are these: 2 h, labeling site Lys2, peptide […]. The data set is classed as cell-based.
For data set [7], the system named is HS5 human MSCs. The data set is described as follows: MTT viability assay of stromal cells. The data set is classed as cell-based. The method, then:
Cell viability of primary samples
HS5-GFP human bone marrow stromal cells were plated and cultured for 72 hours to near confluence.
MOLM13 cells were then seeded onto HS5-GFP cells to establish a co-culture. Twenty-four hours later, cells were treated with increasing concentrations of drug for an additional 72 hours. MOLM13 and HS5-GFP cells were then separated and MTT assay s were performed for cell viability assessment of each cell population.
For murine or human primary AML cells, 100,000 cells/well were plated in a 96-well plate and treated with increasing concentrations of drug. Cell viability, via trypan blue, was measured every 24 hours. If the viability fell below 50% or at 72 hours of treatment, whichever came earlier, cell viability of each plate was measured via CellTiter-Glo. Primary human AML cells were obtained from the OSUCCC Leukemia Tissue Bank Shared […]
For primary human fibroblasts, cells were plated at 10,000 cells/well in a 96-well plate and cultured for 24 hours. After 24 hours, cells were treated with drug for 72 hours. A MTT assay was performed to assess cell […]
Primary AML samples were analyzed by targeted gene sequencing of 80 genes, as previously described (1). Samples were pooled and analyzed on a MiSeq system using the Illuminia MiSeq Reagent Kit v3. Ill umina Isis Banded Smith Waterman aligner and hg19 genome were used to align the sequences. […]

In data set [8] the target is T1, JAK2 (Homo sapiens, UniProt O60674).
T1 construct: purchased Eurofins DiscoverX
Briefly: KdELECT binding assay.

Data set [9] deals with PIK3CG (Homo sapiens, UniProt P48736). The data set is described as follows: KiNativ, OCI cells live cell. It is filed as cell-based. The conditions noted are these: 2 h, labeling site ATP, peptide […].
In data set [10] the target is MAP4K5 (Homo sapiens, UniProt Q9Y4K4). Briefly: KiNativ, OCI cells live cell. It is filed as cell-based. The conditions noted are these: 2 h.
MAP4K5, sequence (Q9Y4K4 whole entry): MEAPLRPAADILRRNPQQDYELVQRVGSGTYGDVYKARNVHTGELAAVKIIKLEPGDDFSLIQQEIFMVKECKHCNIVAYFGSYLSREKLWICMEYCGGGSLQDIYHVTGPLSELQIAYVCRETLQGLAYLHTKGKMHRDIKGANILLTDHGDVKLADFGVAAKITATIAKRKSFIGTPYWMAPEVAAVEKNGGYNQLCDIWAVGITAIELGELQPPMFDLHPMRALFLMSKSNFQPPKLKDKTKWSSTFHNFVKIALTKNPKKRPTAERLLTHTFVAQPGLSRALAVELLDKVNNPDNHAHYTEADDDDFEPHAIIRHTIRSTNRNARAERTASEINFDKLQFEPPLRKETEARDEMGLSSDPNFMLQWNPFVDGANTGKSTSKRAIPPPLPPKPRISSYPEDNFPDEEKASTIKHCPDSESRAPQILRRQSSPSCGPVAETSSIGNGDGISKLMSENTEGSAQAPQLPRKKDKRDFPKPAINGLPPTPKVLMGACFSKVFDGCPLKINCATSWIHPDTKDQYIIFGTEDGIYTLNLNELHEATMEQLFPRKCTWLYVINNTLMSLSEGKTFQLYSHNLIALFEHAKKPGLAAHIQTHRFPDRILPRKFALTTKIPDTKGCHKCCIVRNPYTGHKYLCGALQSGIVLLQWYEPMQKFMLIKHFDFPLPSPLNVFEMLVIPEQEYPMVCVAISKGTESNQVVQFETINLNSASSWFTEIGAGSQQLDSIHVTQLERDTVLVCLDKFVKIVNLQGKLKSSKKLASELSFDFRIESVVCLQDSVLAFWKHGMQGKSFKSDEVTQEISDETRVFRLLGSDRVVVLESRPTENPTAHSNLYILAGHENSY
Data set [11] has as its target T2, TYK2 (Homo sapiens, UniProt P29597).
T2 construct: purchased Eurofins DiscoverX
The data set is described as follows: KdELECT binding assay.

For data set [12], the target named is MARK3 (Homo sapiens, UniProt P27448). Briefly: KiNativ, OCI cells live cell. The data set is classed as cell-based. The conditions noted are these: 2 h, labeling site Lys1, peptide […].
MARK3, sequence (P27448 whole entry): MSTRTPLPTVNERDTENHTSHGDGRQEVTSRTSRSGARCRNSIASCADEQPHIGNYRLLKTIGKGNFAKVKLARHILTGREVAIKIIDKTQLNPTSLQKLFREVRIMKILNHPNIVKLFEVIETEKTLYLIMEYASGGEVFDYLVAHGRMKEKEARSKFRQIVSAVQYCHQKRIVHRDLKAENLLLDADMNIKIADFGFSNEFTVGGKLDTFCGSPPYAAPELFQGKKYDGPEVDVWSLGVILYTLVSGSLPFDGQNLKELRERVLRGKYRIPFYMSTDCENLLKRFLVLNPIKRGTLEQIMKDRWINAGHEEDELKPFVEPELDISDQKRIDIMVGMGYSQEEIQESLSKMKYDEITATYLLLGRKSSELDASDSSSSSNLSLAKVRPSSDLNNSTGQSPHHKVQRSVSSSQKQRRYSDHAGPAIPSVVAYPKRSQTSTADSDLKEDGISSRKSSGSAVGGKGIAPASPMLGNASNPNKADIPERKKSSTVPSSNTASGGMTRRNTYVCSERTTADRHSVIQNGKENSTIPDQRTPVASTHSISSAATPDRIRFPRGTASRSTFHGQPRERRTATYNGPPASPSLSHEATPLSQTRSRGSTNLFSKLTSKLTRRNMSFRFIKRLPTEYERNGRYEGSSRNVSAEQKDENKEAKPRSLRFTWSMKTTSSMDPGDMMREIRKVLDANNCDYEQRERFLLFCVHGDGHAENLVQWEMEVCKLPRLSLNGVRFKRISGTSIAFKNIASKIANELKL
Data set [13] concerns the target T3, IRAK3 (Homo sapiens, UniProt Q9Y616).
T3 sequence (Q9Y616 1-596): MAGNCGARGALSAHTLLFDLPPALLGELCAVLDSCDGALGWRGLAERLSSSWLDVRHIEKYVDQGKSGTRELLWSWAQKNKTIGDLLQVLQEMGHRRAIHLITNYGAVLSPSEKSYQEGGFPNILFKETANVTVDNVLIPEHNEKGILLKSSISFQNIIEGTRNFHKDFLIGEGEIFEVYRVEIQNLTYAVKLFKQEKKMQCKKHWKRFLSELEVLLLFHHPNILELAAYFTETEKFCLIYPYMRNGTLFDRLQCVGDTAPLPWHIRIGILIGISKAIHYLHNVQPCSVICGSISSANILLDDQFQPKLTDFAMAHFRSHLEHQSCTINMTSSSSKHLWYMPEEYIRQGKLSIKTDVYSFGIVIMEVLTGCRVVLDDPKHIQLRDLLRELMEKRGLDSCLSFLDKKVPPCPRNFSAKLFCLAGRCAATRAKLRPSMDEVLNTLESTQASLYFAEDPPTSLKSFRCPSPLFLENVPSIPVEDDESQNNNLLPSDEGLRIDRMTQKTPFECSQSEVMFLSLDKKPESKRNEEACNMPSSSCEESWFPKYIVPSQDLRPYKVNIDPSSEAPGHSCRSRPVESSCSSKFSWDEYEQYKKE
The data set is described as follows: KiNativ, OCI cells live cell. The data set is classed as cell-based. As to conditions: 2 h.

Data set [14] has as its target PI4KA (Homo sapiens, UniProt P42356). The data set is described as follows: KiNativ, OCI cells live cell. The data set is classed as cell-based. The conditions noted are these: 2 h, labeling site ATP, peptide […].

NLK, sequence (Q9UBE8 whole entry): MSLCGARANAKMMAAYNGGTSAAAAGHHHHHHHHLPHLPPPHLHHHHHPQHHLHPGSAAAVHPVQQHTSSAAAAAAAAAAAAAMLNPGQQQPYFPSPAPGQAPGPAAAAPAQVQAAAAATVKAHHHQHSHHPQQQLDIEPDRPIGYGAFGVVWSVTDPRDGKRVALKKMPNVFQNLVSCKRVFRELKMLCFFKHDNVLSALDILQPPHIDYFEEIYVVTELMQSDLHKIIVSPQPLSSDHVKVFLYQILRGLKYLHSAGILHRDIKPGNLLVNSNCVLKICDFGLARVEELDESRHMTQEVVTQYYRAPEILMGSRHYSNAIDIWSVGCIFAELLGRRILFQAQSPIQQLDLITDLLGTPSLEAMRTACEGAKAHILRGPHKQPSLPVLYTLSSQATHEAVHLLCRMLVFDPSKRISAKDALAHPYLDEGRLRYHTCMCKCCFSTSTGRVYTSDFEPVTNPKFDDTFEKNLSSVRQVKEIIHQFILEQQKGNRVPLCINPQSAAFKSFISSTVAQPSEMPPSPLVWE
PI4KA, sequence (P42356 whole entry): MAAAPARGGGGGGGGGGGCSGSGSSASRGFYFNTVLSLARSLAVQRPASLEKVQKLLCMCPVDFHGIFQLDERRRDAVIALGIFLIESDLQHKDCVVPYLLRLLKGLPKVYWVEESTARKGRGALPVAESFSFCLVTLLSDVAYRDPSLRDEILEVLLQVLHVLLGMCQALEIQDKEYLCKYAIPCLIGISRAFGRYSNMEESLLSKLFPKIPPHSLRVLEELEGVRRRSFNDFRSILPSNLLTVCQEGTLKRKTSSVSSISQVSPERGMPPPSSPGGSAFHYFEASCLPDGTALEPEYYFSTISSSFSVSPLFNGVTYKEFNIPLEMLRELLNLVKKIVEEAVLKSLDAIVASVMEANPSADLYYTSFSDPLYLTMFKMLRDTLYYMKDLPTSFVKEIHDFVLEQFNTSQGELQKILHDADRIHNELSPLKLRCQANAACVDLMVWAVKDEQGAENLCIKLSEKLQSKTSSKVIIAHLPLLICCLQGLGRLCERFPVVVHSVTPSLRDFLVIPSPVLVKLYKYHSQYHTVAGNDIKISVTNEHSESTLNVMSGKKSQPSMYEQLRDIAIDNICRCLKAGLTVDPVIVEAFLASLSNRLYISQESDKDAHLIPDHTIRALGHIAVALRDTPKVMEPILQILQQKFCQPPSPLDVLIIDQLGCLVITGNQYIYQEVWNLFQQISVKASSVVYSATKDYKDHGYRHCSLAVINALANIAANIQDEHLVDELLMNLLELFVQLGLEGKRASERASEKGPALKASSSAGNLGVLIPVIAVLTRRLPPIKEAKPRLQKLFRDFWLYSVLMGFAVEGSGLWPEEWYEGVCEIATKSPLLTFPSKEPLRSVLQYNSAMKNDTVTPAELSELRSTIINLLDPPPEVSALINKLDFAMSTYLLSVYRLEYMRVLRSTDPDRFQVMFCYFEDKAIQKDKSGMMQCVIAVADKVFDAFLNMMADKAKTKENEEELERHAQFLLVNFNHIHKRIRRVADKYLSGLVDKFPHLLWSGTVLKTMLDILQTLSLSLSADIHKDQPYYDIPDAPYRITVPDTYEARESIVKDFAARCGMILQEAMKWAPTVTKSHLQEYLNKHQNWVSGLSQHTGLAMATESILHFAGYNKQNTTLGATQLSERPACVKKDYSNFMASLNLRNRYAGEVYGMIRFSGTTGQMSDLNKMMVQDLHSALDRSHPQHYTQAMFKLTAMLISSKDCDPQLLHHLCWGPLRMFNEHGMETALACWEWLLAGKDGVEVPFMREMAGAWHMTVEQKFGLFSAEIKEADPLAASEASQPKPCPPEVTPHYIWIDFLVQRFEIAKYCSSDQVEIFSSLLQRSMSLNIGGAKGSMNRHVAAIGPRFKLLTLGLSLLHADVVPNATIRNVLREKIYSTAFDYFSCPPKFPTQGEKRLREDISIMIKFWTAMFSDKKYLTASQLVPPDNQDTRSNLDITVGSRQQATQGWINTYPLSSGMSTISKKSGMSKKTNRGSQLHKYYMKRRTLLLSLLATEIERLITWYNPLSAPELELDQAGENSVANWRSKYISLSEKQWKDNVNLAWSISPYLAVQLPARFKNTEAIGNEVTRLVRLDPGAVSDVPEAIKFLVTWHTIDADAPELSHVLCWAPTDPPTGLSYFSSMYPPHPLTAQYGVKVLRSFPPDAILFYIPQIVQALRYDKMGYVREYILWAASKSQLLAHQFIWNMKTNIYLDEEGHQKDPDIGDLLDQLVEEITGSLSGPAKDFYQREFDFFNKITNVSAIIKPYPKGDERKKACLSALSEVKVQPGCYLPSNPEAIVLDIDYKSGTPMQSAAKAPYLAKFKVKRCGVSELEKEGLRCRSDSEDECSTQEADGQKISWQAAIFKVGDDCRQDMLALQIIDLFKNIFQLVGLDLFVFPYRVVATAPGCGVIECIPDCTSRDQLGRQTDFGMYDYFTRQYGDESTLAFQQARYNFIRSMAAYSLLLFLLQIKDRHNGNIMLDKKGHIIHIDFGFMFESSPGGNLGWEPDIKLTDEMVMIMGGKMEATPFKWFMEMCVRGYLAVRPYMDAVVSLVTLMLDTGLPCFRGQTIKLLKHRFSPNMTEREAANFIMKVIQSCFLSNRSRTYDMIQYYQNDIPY
MELK, sequence (Q14680 whole entry): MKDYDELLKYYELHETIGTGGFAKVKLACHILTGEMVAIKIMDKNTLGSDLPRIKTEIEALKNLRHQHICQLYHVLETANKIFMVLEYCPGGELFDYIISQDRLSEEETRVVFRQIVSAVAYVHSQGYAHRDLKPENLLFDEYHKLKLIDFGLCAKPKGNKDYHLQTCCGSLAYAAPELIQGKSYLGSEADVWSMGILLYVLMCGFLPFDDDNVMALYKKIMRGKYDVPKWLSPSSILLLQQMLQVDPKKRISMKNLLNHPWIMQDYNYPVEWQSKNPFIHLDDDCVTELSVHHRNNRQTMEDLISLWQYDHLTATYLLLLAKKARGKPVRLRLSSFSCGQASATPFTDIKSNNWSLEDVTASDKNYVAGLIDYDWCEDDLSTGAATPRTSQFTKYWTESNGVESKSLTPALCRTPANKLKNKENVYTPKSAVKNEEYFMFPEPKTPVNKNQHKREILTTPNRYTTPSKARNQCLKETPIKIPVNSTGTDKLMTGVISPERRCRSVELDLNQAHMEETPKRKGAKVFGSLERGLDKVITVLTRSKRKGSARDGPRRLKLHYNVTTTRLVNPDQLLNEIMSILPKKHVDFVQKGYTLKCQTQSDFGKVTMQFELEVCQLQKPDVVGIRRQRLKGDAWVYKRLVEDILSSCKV

For the compound `CN1CCN(Cc2ccc(Nc3ncc(Cl)c(Nc4ccccc4S(=O)(=O)N(C)C)n3)cc2)CC1` [TP-0903], the inhibition at 0.1 µM was -5.6% in [1]; 13.5% in data set [3]; -23% in data set [6]; 5.5% in [9]; 28.4% in data set [10] (labeling site Lys1, peptide NVHTGELAAVKIIK); 60.8% in data set [10] (labeling site Lys2, peptide DIKGANILLTDHGDVK). For the same compound, the inhibition at 0.1 µM is 47% in [12]; 87.9% in [13] (labeling site Lys1, peptide VEIQNLTYAVKLFK); 94.9% in data set [13] (labeling site Protein Kinase Domain, peptide SHLEHQSCTINMTSSSSKHLWYMPEEYIR); -14.6% in data set [14]. In [2], this compound showed a pIC50 of 7.51. Moreover, the Inhibition is given as 39.8% in data set [4] (labeling site Activation Loop, peptide AQTHGKWPVK); 38.5% in data set [4] (labeling site Activation Loop, peptide ISDFGLSKALR); 37.9% in data set [4] (labeling site Lys1, peptide TVAVKILK); -57.1% in data set [5]. Also, the “Concentrations not cytotoxic to HS5 human MSCs” value in [7] is recorded as < 250 nM. Also, the pKd in data set [8] and in [11] was > 8.30 in each case.
